15 molecules from patent US12071408B2, “Multi-targeted tyrosine kinase inhibitors effective in antitumor uses” (Shanghai AB PharmaTech Ltd., priority 2021, dated 2024) can be followed below.

One experiment deals with C-MET (Homo sapiens (Human), UniProt P08581). Put plainly: Kinase inhibition, Mobility-Shift Assay. The class given is biochemical. Conditions: class; read-out: C-MET range of activity (IC50).
The subject of experiment [1] is hepatocellular carcinoma cell line (Hep3B 2.1-7). Put plainly: Tumor cell proliferation inhibition (CTG, 72 h). It is filed as cell-based. Conditions: Homo sapiens; Hep3B 2.1-7 cells, class; read-out: Hep3B 2.1-7 range of activity (IC50).
A further experiment deals with EGFR (Homo sapiens (Human), UniProt P00533). Nature of the experiment: Kinase inhibition, Mobility-Shift Assay. It is filed as biochemical. Conditions: class; read-out: EGFR range of activity (IC50).
EGFR, sequence (P00533 25-1210): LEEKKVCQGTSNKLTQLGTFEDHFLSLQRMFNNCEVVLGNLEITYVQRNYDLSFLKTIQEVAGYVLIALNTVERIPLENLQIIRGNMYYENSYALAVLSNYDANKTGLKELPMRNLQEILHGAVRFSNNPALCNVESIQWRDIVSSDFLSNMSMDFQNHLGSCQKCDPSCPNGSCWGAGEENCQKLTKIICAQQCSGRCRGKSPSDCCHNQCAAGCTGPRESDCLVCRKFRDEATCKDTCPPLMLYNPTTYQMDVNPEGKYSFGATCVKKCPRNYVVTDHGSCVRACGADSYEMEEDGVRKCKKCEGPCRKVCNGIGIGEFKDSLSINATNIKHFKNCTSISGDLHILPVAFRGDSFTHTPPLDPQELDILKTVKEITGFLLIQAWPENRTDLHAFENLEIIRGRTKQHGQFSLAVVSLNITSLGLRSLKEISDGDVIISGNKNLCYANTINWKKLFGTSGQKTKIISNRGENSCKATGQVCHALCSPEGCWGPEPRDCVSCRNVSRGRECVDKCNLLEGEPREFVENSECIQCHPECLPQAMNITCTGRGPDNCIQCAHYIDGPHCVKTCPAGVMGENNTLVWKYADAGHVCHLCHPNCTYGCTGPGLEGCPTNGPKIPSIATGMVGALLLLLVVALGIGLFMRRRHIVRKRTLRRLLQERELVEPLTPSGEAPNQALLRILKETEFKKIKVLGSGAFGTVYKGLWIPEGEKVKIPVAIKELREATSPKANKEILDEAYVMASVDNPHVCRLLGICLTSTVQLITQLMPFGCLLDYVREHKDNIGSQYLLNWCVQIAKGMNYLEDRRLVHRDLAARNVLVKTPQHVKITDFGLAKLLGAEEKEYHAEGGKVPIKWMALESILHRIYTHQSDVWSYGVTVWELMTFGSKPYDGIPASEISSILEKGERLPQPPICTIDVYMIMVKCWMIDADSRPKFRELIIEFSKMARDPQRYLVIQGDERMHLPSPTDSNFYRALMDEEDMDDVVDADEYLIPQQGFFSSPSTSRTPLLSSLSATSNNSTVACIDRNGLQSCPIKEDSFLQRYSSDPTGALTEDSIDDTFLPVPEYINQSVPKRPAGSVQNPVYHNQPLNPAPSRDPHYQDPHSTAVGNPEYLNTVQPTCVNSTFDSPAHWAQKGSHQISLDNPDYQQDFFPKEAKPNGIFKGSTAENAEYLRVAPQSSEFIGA
Experiment [2] has as its system bladder cancer cell line (RT112/84). Put plainly: Tumor cell proliferation inhibition (CTG, 72 h). It is filed as cell-based. To be noted: Homo sapiens; RT112/84 cells, class; read-out: RT112/84 range of activity (IC50).
The next experiment addresses FGFR2 (Homo sapiens (Human), UniProt P21802). Put plainly: Kinase inhibition, Mobility-Shift Assay. Conditions: class; read-out: FGFR2 range of activity effects (IC50). The class given is biochemical.
The test system of experiment [3] is thyroid cancer cell line (TT). Nature of the experiment: Tumor cell proliferation inhibition (CTG, 72 h). To be noted: Homo sapiens; TT cells, class; read-out: TT range of activity (IC50). The class given is cell-based.
For another experiment, the target named is VEGFR-2 (KDR) (Homo sapiens (Human), UniProt P35968). Put plainly: Kinase inhibition, Mobility-Shift Assay. It is filed as biochemical. To be noted: class; read-out: KDR activity effect range (IC50).
VEGFR-2 (KDR), sequence (P35968 20-1356): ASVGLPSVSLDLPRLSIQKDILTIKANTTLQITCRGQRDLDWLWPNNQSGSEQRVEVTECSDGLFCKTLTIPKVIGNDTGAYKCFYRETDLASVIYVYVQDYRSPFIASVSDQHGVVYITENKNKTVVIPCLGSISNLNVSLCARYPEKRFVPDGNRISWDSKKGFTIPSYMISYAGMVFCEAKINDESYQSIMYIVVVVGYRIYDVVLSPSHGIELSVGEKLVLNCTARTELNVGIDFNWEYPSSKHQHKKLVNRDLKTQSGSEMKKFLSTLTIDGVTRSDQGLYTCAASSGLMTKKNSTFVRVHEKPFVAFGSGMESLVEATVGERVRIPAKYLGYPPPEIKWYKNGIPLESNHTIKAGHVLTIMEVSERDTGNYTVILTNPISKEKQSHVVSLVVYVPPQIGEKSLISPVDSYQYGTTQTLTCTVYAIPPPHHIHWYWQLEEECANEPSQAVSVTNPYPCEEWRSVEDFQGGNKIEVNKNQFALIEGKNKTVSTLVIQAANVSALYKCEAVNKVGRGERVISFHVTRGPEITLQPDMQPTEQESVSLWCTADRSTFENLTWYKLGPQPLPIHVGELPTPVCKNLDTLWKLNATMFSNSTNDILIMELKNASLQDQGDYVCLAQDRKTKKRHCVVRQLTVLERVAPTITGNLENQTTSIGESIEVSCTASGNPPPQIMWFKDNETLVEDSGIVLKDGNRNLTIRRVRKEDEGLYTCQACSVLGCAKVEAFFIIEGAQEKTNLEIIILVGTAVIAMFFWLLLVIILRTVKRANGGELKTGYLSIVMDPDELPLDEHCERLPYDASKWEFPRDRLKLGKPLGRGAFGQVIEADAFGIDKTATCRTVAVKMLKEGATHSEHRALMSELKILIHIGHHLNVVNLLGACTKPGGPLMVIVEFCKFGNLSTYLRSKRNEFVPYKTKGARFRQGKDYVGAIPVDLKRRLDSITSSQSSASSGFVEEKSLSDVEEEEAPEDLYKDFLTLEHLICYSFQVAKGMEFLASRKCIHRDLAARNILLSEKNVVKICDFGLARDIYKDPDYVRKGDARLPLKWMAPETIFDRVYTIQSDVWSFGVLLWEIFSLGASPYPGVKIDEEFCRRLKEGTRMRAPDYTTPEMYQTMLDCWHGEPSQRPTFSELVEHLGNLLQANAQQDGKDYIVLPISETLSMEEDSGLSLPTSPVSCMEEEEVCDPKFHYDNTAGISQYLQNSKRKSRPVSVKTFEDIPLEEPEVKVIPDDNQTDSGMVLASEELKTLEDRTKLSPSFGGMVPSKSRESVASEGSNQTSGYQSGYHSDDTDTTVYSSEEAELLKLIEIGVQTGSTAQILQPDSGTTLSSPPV
The target in a further experiment is FGFR4 (Homo sapiens (Human), UniProt P22455). Put plainly: Kinase inhibition, Mobility-Shift Assay. It is filed as biochemical. Conditions: class; read-out: FGFR4 range of activity effects (IC50).
FGFR4, sequence (P22455 22-802): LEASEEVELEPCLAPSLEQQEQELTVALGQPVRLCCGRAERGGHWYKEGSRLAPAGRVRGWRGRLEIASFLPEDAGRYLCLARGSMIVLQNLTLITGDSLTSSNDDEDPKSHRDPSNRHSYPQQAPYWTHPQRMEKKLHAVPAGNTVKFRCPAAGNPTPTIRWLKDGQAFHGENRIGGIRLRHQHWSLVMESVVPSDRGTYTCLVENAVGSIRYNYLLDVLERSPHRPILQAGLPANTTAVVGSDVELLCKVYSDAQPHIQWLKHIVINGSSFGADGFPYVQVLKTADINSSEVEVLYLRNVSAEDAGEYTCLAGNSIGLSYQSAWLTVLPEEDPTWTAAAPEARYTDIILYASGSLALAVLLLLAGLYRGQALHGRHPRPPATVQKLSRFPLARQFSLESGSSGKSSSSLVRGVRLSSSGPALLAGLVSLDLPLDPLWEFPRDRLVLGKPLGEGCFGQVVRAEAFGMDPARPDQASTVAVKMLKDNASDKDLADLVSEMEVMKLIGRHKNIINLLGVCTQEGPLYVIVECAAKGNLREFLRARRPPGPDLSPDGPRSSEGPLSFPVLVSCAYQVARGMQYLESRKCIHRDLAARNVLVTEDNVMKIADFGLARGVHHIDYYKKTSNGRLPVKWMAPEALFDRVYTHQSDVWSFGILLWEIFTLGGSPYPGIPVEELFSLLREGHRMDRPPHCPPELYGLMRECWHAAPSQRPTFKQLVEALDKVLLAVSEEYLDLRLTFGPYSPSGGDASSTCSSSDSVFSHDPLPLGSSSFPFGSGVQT
Experiment [4] concerns cervical cancer cell line (Hela). Put plainly: Tumor cell proliferation inhibition (CTG, 72 h). The class given is cell-based. To be noted: Homo sapiens; Hela cells, class; read-out: Hela activity effect range (IC50).
The test system of experiment [5] is leukemia cell line (K562). Put plainly: Tumor cell proliferation inhibition (CTG, 72 h). To be noted: Homo sapiens; K562 cells, class; read-out: K562 activity effect range (IC50). The class given is cell-based.

C-MET, sequence (P08581 25-1390): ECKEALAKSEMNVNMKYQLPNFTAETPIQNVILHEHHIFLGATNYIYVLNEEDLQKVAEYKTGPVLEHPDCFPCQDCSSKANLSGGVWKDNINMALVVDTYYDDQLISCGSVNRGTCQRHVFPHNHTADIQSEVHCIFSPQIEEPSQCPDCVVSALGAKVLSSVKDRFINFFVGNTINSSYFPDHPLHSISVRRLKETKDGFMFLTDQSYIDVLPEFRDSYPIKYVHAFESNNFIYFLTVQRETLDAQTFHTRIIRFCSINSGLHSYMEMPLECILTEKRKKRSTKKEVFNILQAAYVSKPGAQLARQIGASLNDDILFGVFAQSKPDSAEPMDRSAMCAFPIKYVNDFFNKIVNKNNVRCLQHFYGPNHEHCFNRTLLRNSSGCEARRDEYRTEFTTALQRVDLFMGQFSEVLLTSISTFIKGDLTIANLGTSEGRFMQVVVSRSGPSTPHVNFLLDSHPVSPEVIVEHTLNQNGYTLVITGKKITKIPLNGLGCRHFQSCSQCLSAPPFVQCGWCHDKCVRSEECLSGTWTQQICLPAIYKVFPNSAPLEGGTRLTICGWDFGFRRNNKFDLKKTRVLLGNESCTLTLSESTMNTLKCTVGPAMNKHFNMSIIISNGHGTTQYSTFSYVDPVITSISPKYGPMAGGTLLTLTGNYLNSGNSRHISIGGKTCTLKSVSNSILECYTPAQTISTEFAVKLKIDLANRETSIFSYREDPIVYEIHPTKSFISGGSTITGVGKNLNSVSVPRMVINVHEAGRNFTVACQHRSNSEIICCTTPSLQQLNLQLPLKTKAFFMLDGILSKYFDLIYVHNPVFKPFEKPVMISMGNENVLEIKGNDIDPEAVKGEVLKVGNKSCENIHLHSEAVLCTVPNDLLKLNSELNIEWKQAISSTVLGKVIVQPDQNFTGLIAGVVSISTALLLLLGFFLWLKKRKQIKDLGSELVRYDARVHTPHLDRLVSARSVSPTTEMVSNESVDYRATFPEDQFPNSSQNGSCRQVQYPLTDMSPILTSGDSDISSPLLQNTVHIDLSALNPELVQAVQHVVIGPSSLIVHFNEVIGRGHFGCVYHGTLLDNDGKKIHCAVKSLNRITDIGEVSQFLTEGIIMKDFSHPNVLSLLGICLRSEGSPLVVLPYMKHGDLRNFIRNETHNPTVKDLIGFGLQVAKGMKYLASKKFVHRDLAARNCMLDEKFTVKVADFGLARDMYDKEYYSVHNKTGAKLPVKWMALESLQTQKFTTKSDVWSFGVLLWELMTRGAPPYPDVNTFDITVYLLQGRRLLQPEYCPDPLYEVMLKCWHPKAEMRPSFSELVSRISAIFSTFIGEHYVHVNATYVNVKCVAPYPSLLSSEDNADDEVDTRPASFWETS

As for `COc1cc2nccc(Oc3c(F)cc(NC(=O)N4CC[C@H](O)C4)c(Cl)c3F)c2cc1C(N)=O` [III-31], the IC50 on C-MET was greater than 100 nM; in [1], greater than 5 µM; on EGFR it was greater than 100 nM; in [2], greater than 1000 nM; on FGFR2, greater than 100 nM; in experiment [3], greater than 10 µM. Further, the IC50 at VEGFR-2 (KDR) was greater than 10 nM; at FGFR4, greater than 100 nM; in [4], greater than 10 µM; in [5], greater than 10 µM.
As to `COc1cc2nccc(Oc3c(F)cc(NC(=O)NC4CC4)c(Cl)c3OCC(F)F)c2cc1C(N)=O` [III-44], the IC50 was greater than 100 nM on C-MET; greater than 5 µM in [1]; greater than 100 nM on EGFR; greater than 1000 nM in [2]; greater than 100 nM on FGFR2; greater than 10 µM in [3]. Further, the IC50 on VEGFR-2 (KDR) is greater than 10 nM; at FGFR4, greater than 100 nM; in [4], greater than 10 µM; in [5] it was greater than 10 µM.
Turning to `COc1cc2nccc(Oc3c(Cl)cc(NC(=O)NC4CC4)c(F)c3F)c2cc1C(N)=O` [III-35], the IC50 on C-MET was greater than 100 nM; in experiment [1] it was greater than 5 µM; on EGFR it was greater than 100 nM; in [2] it was greater than 1000 nM; at FGFR2, greater than 100 nM; in [3] it was greater than 10 µM. The IC50 was greater than 10 nM on VEGFR-2 (KDR), greater than 100 nM at FGFR4, greater than 10 µM in experiment [4] and greater than 10 µM in experiment [5].
On to `COc1cc2nccc(Oc3c(F)cc(NC(=O)N4CCN(C)CC4)c(Cl)c3F)c2cc1C(N)=O` [III-33], for which the IC50 is greater than 100 nM on C-MET; greater than 5 µM in [1]; greater than 100 nM on EGFR; greater than 1000 nM in experiment [2]; greater than 100 nM on FGFR2; greater than 10 µM in [3]. For the same molecule, the IC50 at VEGFR-2 (KDR) is greater than 10 nM; on FGFR4, greater than 100 nM; in [4] it was greater than 10 µM; in experiment [5], greater than 10 µM.
Regarding `COc1cc2nccc(Oc3c(F)cc(NC(=O)NC(C)C)c(Cl)c3F)c2cc1C(N)=O` [III-34], the IC50 on C-MET was greater than 100 nM; in experiment [1] it was greater than 5 µM; on EGFR, greater than 100 nM; in [2], greater than 1000 nM; on FGFR2 it was greater than 100 nM; in experiment [3], greater than 10 µM. For the same molecule, the IC50 on VEGFR-2 (KDR) is greater than 10 nM; at FGFR4 it was greater than 100 nM; in [4] it was greater than 10 µM; in experiment [5] it was greater than 10 µM.
On to `COc1cc2nccc(Oc3c(F)cc(NC(=O)NC4CC4)c(Cl)c3OC3CC3)c2cc1C(N)=O` [III-45], for which the IC50 at C-MET is greater than 100 nM; in experiment [1], greater than 5 µM; on EGFR, greater than 100 nM; in experiment [2], greater than 1000 nM; on FGFR2, greater than 100 nM; in experiment [3], greater than 10 µM. Also, the IC50 on VEGFR-2 (KDR) is greater than 10 nM; on FGFR4, greater than 100 nM; in experiment [4] it was greater than 10 µM; in [5], greater than 10 µM.
As to `CCC(C)NC(=O)Nc1cc(F)c(Oc2ccnc3cc(OC)c(C(N)=O)cc23)c(F)c1Cl` (stereo not drawn) [III-03], the IC50 on C-MET was greater than 100 nM; in experiment [1], greater than 5 µM; on EGFR, greater than 100 nM; in experiment [2], greater than 1000 nM; on FGFR2, greater than 100 nM; in experiment [3], greater than 10 µM. The IC50 at VEGFR-2 (KDR) is greater than 10 nM; on FGFR4, greater than 100 nM; in [4], greater than 10 µM; in experiment [5], greater than 10 µM.
For `COc1cc2nccc(Oc3c(F)cc(NC(=O)NC4CC4)c(F)c3F)c2cc1C(N)=O` [III-16], the IC50 was 60 to 100 nM at C-MET; 2.5 to 5 µM in [1]; greater than 100 nM at EGFR; 200 to 1000 nM in experiment [2]; 30 to 100 nM at FGFR2; greater than 10 µM in experiment [3]. For the same molecule, the IC50 is 2 to 10 nM at VEGFR-2 (KDR), greater than 100 nM at FGFR4, greater than 10 µM in experiment [4] and 5 to 10 µM in experiment [5].
`COc1cc2nccc(Oc3c(F)cc(NC(=O)NC4CCC4)c(Cl)c3F)c2cc1C(N)=O` [III-26]: the IC50 on C-MET was greater than 100 nM; in [1], greater than 5 µM; on EGFR it was greater than 100 nM; in experiment [2], greater than 1000 nM; at FGFR2, greater than 100 nM; in experiment [3] it was greater than 10 µM. The IC50 on VEGFR-2 (KDR) was greater than 10 nM; at FGFR4, greater than 100 nM; in experiment [4], greater than 10 µM; in experiment [5] it was greater than 10 µM.
Turning to `COc1cc2nccc(Oc3c(F)cc(NC(=O)NC4(C(F)(F)F)CC4)c(Cl)c3F)c2cc1C(N)=O` [III-39], the IC50 was greater than 100 nM at C-MET; greater than 5 µM in experiment [1]; greater than 100 nM at EGFR; greater than 1000 nM in experiment [2]; greater than 100 nM on FGFR2; greater than 10 µM in experiment [3]. Further, the IC50 at VEGFR-2 (KDR) was greater than 10 nM; on FGFR4, greater than 100 nM; in experiment [4], greater than 10 µM; in experiment [5] it was greater than 10 µM.
Take `COc1cc2nccc(Oc3c(F)cc(NC(=O)NC4CC4)c(Br)c3F)c2cc1C(N)=O` [III-17]: the IC50 was greater than 100 nM at C-MET; greater than 5 µM in experiment [1]; greater than 100 nM on EGFR; greater than 1000 nM in [2]; greater than 100 nM on FGFR2; greater than 10 µM in experiment [3]. The IC50 is greater than 10 nM on VEGFR-2 (KDR), greater than 100 nM on FGFR4, greater than 10 µM in [4] and greater than 10 µM in experiment [5].
`COc1cc2nccc(Oc3c(F)cc(NC(=O)NCC(F)F)c(Cl)c3F)c2cc1C(N)=O` [III-05]: the IC50 at C-MET was greater than 100 nM; in experiment [1] it was greater than 5 µM; on EGFR it was greater than 100 nM; in [2], greater than 1000 nM; on FGFR2 it was greater than 100 nM; in experiment [3], greater than 10 µM. The IC50 at VEGFR-2 (KDR) was greater than 10 nM; on FGFR4 it was greater than 100 nM; in experiment [4], greater than 10 µM; in [5], greater than 10 µM.
For `COc1cc2nccc(Oc3c(F)cc(NC(=O)NCCO)c(Cl)c3F)c2cc1C(N)=O` [III-06], the IC50 was greater than 100 nM at C-MET; greater than 5 µM in [1]; greater than 100 nM on EGFR; greater than 1000 nM in experiment [2]; greater than 100 nM at FGFR2; greater than 10 µM in experiment [3]. Besides, the IC50 on VEGFR-2 (KDR) was greater than 10 nM; at FGFR4, greater than 100 nM; in [4], greater than 10 µM; in experiment [5], greater than 10 µM.
As for `COc1cc2nccc(Oc3c(F)cc(NC(=O)NCC4CC4)c(Cl)c3F)c2cc1C(N)=O` [III-25], the IC50 on C-MET was greater than 100 nM; in [1], greater than 5 µM; at EGFR, greater than 100 nM; in experiment [2], greater than 1000 nM; at FGFR2, greater than 100 nM; in experiment [3] it was greater than 10 µM. In addition, the IC50 was greater than 10 nM on VEGFR-2 (KDR), greater than 100 nM at FGFR4, greater than 10 µM in experiment [4] and greater than 10 µM in experiment [5].
Take `COc1cc2nccc(Oc3c(F)cc(NC(=O)NC4CC4)c(Cl)c3OC)c2cc1C(N)=O` [III-41]: the IC50 was greater than 100 nM on C-MET; greater than 5 µM in experiment [1]; greater than 100 nM at EGFR; greater than 1000 nM in experiment [2]; greater than 100 nM at FGFR2; greater than 10 µM in experiment [3]. Further, the IC50 was greater than 10 nM at VEGFR-2 (KDR), greater than 100 nM at FGFR4, greater than 10 µM in experiment [4] and greater than 10 µM in [5].
